Reference: US12077503B2, “Substituted cyclic amides and their use as herbicides” (FMC CORPORATION, priority 2015, dated 2024)
Where two headings read alike, the source gives them in different places.

How the values were obtained:
Format in all cases: in vivo
[1] = tested on: Galium (catchweed bedstraw, Galium aparine); experiment: Test A postemergence; conditions: Galium, post-emergence, 240 h, Postemergence; for pest or weed control at 125 g/ha: 125 g ai/ha, visual rating about 10 d after treatment, read-out: Galium plant response rating (0 to 100 scale); for pest or weed control at 500 g/ha: 500 g ai/ha, visual injury, 0 to 100 scale (0 no effect, 100 complete control), approx. 10 d, read-out: Plant response rating, Galium
In short: (§1)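 Greenhouse, ~10 d after spray; visual injury vs untreated controls, 0 = no effect, 100 = complete control. Preemergence: directed soil spray over planted seeds. Postemergence: plants 2–10 cm, 1–2 leaf stage. Loam/sand blend. Compound in non-phytotoxic solvent with surfactant.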

[2] = tested on: Kochia (Kochia scoparia); experiment: Test A postemergence; conditions: Bassia scoparia, post-emergence, 240 h, Postemergence; for pest or weed control at 125 g/ha: 125 g ai/ha, visual rating about 10 d after treatment, read-out: Kochia plant response rating (0 to 100 scale); for pest or weed control at 500 g/ha: 500 g ai/ha, visual injury, 0 to 100 scale (0 no effect, 100 complete control), approx. 10 d, read-out: Plant response rating, Kochia
In short: as §1

[3] = tested on: barnyardgrass (Echinochloa crus-galli); experiment: Test A postemergence; conditions: Echinochloa crus-galli, post-emergence, 240 h, Postemergence; for pest or weed control at 125 g/ha: 125 g ai/ha, visual rating about 10 d after treatment, read-out: Barnyardgrass plant response rating (0 to 100 scale, 0 no effect, 100 complete control); for pest or weed control at 500 g/ha: 500 g ai/ha, visual injury, 0 to 100 scale (0 no effect, 100 complete control), approx. 10 d, read-out: Plant response rating, Barnyardgrass
In short: as §1

[4] = tested on: blackgrass (Alopecurus myosuroides); experiment: Test A postemergence; conditions: Alopecurus myosuroides, post-emergence, 240 h, Postemergence; for pest or weed control at 125 g/ha: 125 g ai/ha, visual rating about 10 d after treatment, read-out: Blackgrass plant response rating (0 to 100 scale); for pest or weed control at 500 g/ha: 500 g ai/ha, visual injury, 0 to 100 scale (0 no effect, 100 complete control), approx. 10 d, read-out: Plant response rating, Blackgrass
In short: as §1

[5] = tested on: corn (Zea mays); experiment: Test A postemergence; conditions: Zea mays, post-emergence, 240 h, Postemergence; for plant injury at 125 g/ha: 125 g ai/ha, visual rating about 10 d after treatment, read-out: Corn plant response rating (0 to 100 scale); for Corn plant response rating (crop injury, 0 = no effect, 100 = complete kill) at 500 g/ha: 500 g ai/ha, visual injury, 0 to 100 scale (0 no effect, 100 complete control), approx. 10 d
In short: as §1

[6] = tested on: giant foxtail (Setaria faberii); experiment: Test A postemergence; conditions: Setaria faberi, post-emergence, 240 h, Postemergence; for pest or weed control at 125 g/ha: 125 g ai/ha, visual rating about 10 d after treatment, read-out: Foxtail, Giant plant response rating (0 to 100 scale); for pest or weed control at 500 g/ha: 500 g ai/ha, visual injury, 0 to 100 scale (0 no effect, 100 complete control), approx. 10 d, read-out: Plant response rating, Foxtail, Giant
In short: as §1

[7] = tested on: pigweed (Amaranthus retroflexus); experiment: Test A postemergence; conditions: Amaranthus retroflexus, post-emergence, 240 h, Postemergence; for pest or weed control at 125 g/ha: 125 g ai/ha, visual rating about 10 d after treatment, read-out: Pigweed plant response rating (0 to 100 scale); for pest or weed control at 500 g/ha: 500 g ai/ha, visual injury, 0 to 100 scale (0 no effect, 100 complete control), approx. 10 d, read-out: Plant response rating, Pigweed
In short: as §1

[8] = tested on: ragweed (common ragweed, Ambrosia elatior); experiment: Test A postemergence; conditions: Ambrosia artemisiifolia, post-emergence, 240 h, Postemergence; for pest or weed control at 125 g/ha: 125 g ai/ha, visual rating about 10 d after treatment, read-out: Ragweed plant response rating (0 to 100 scale); for pest or weed control at 500 g/ha: 500 g ai/ha, visual injury, 0 to 100 scale (0 no effect, 100 complete control), approx. 10 d, read-out: Plant response rating, Ragweed
In short: as §1

[9] = tested on: ryegrass, Italian (Italian ryegrass, Lolium multiflorum); experiment: Test A postemergence; conditions: Lolium multiflorum, post-emergence, 240 h, Postemergence; for pest or weed control at 125 g/ha: 125 g ai/ha, visual rating about 10 d after treatment, read-out: Ryegrass, Italian plant response rating (0 to 100 scale); for pest or weed control at 500 g/ha: 500 g ai/ha, visual injury, 0 to 100 scale (0 no effect, 100 complete control), approx. 10 d, read-out: Plant response rating, Ryegrass, Italian
In short: as §1

[10] = tested on: wheat (Triticum aestivum); experiment: Test A postemergence; conditions: Triticum aestivum, post-emergence, 240 h, Postemergence; for plant injury at 125 g/ha: 125 g ai/ha, visual rating about 10 d after treatment, read-out: Wheat plant response rating (0 to 100 scale); for plant injury at 500 g/ha: 500 g ai/ha, visual injury, 0 to 100 scale (0 no effect, 100 complete control), approx. 10 d, read-out: Plant response rating, Wheat
In short: as §1

[11] = tested on: barnyardgrass (Echinochloa crus-galli); experiment: Test B flooded paddy test; conditions: Echinochloa crus-galli, 250 g ai/ha, Flood
In short: (§2)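 Greenhouse paddy pots with 2-leaf stage plants received compound by direct addition to floodwater 3 cm deep, kept at that level. Scored visually at 13–15 d versus controls (0 no effect; 100 complete control).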

[12] = tested on: ducksalad (Heteranthera limosa); experiment: Test B flooded paddy test; conditions: Heteranthera limosa, 250 g ai/ha, Flood
In short: as §2

[13] = tested on: rice (Oryra sativa); experiment: Test B flooded paddy test; conditions: Oryza sativa, 250 g ai/ha, Flood
In short: as §2

[14] = tested on: sedge, umbrella (small-flower umbrella sedge, Cyperus difformis); experiment: Test B flooded paddy test; conditions: Cyperus difformis, 360 h, Flood, 250 g ai/ha; visually evaluated after 13 to 15 d; read-out: Plant response rating, Sedge, Umbrella (0 to 100 scale where 0 is no effect and 100 is complete control)
In short: as §2

[15] = 0 to 100 scale where 0 is no effect and 100 is complete control, read-out: Barnyardgrass plant response rating
[16] = 0 to 100 scale where 0 is no effect and 100 is complete control, read-out: Ducksalad plant response rating
[17] = 0 to 100 scale where 0 is no effect and 100 is complete control, read-out: Rice plant response rating
[18] = 360 h, visually evaluated after 13 to 15 d, read-out: Plant response rating, Barnyardgrass (0 to 100 scale where 0 is no effect and 100 is complete control)
[19] = 360 h, visually evaluated after 13 to 15 d, read-out: Plant response rating, Ducksalad (0 to 100 scale where 0 is no effect and 100 is complete control)
[20] = 360 h, visually evaluated after 13 to 15 d, read-out: Plant response rating, Rice (0 to 100 scale where 0 is no effect and 100 is complete control)

| SMILES | pest or weed control at 125 g/ha [1] [%] | pest or weed control at 500 g/ha [1] [%] | pest or weed control at 125 g/ha [2] [%] | pest or weed control at 500 g/ha [2] [%] | pest or weed control at 125 g/ha [3] [%] | pest or weed control at 500 g/ha [3] [%] | pest or weed control at 125 g/ha [4] [%] | pest or weed control at 500 g/ha [4] [%] | plant injury at 125 g/ha [5] [%] | Corn plant response rating (crop injury, 0 = no effect, 100 = complete kill) at 500 g/ha [5] [%] | pest or weed control at 125 g/ha [6] [%] | pest or weed control at 500 g/ha [6] [%] | pest or weed control at 125 g/ha [7] [%] | pest or weed control at 500 g/ha [7] [%] | pest or weed control at 125 g/ha [8] [%] | pest or weed control at 500 g/ha [8] [%] | pest or weed control at 125 g/ha [9] [%] | pest or weed control at 500 g/ha [9] [%] | plant injury at 125 g/ha [10] [%] | plant injury at 500 g/ha [10] [%] | other results |
| --- | --- | --- | --- | --- | --- | --- | --- | --- | --- | --- | --- | --- | --- | --- | --- | --- | --- | --- | --- | --- | --- |
| CS(=O)(=O)c1ccccc1NC(=O)[C@H]1C(=O)NC[C@@H]1c1ccc2c(c1)CCO2 [Compound 1320] | 30 | 40 | 0 | 0 | 0 | 50 | 0 | 0 | 0 | 0 | 0 | 20 | 0 | 0 | 0 | 0 | 0 | 0 | 0 | 0 | pest or weed control at 250 g/ha [11, 15]: 0%; pest or weed control at 250 g/ha [12, 16]: 50%; pest or weed control at 250 g/ha [13, 17]: 0%; pest or weed control at 250 g/ha [14]: 0% |
| CN1C[C@H](c2ccc3c(c2)CCO3)[C@@H](C(=O)Nc2ccc(F)c(F)c2F)C1=O [Compound 1323] | 50 | 60 | 0 | 70 | 90 | 90 | 50 | 60 | 50 | 70 | 90 | 90 | 0 | 0 | 0 | 50 | 40 | 70 | 50 | 70 | pest or weed control at 250 g/ha [11, 15]: 90%; pest or weed control at 250 g/ha [12, 16]: 85%; pest or weed control at 250 g/ha [13, 17]: 10%; pest or weed control at 250 g/ha [14]: 0% |
| Cc1c(F)ccc([C@H]2CNC(=O)[C@@H]2C(=O)Nc2cccc(F)c2F)c1F [Compound 1327] | 30 | 50 | 0 | 30 | 90 | 90 | 0 | 20 | 0 | 0 | 20 | 70 | 0 | 0 | 0 | 20 | 0 | 40 | 0 | 0 | pest or weed control at 250 g/ha [11, 15]: 30%; pest or weed control at 250 g/ha [12, 16]: 100%; pest or weed control at 250 g/ha [13, 17]: 0%; pest or weed control at 250 g/ha [14]: 0% |
| Cc1c(F)ccc([C@H]2CNC(=O)[C@@H]2C(=O)Nc2ccc(F)cc2F)c1F [Compound 1328] | 0 | 30 | 0 | 0 | 60 | 90 | 0 | 0 | 0 | 0 | 0 | 40 | 0 | 0 | 0 | 0 | 0 | 30 | 0 | 0 | pest or weed control at 250 g/ha [11, 18]: 0%; pest or weed control at 250 g/ha [12, 19]: 50%; pest or weed control at 250 g/ha [13, 20]: 0%; pest or weed control at 250 g/ha [14]: 0% |
| CN1C[C@H](c2ccc(OC(F)F)cc2)[C@@H](C(=O)Nc2ccccc2F)C1=O [Compound 1371] | 70 | 70 | 50 | 80 | 80 | 90 | 40 | 60 | 40 | 90 | 90 | 90 | 30 | 60 | 20 | 60 | 30 | 50 | 10 | 60 | pest or weed control at 250 g/ha [11, 18]: 60%; pest or weed control at 250 g/ha [12, 19]: 100%; pest or weed control at 250 g/ha [13, 20]: 0%; pest or weed control at 250 g/ha [14]: 0% |
